Results published in PubChem BioAssay (NCI).
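96-well plates; 48 h exposure; 5 concentrations. Endpoints by linear interpolation between flanking doses. Not reached: highest tested concentration assigned. At the TGI there is no net growth.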

What was measured:
Test in all cases: inhibition of tumour cell growth, NCI panel, 48 h
786-0 renal = test system: 786-0 renal
A498 renal = test system: A498 renal
A549 NSCLC = test system: A549 NSCLC
ACHN renal = test system: ACHN renal
BT-549 breast = test system: BT-549 breast
CAKI-1 renal = test system: CAKI-1 renal
CCRF-CEM leukemia = test system: CCRF-CEM leukemia
COLO 205 colon = test system: COLO 205 colon
EKVX NSCLC = test system: EKVX NSCLC
HCT-116 colon = test system: HCT-116 colon
HCT-15 colon = test system: HCT-15 colon
HL-60(TB) leukemia = test system: HL-60(TB) leukemia
HOP-62 NSCLC = test system: HOP-62 NSCLC
HOP-92 NSCLC = test system: HOP-92 NSCLC
HS 578T breast = test system: HS 578T breast
HT29 colon = test system: HT29 colon
IGROV1 ovarian = test system: IGROV1 ovarian
K-562 leukemia = test system: K-562 leukemia
KM12 colon = test system: KM12 colon
LOX IMVI melanoma = test system: LOX IMVI melanoma
M14 melanoma = test system: M14 melanoma
MALME-3M melanoma = test system: MALME-3M melanoma
MCF7 breast = test system: MCF7 breast
MDA-MB-231 breast = test system: MDA-MB-231 breast
MDA-MB-435 = test system: MDA-MB-435
MDA-N = test system: MDA-N
MOLT-4 leukemia = test system: MOLT-4 leukemia
NCI-H226 lung = test system: NCI-H226 lung
NCI-H23 lung = test system: NCI-H23 lung
NCI-H460 lung = test system: NCI-H460 lung
NCI-H522 lung = test system: NCI-H522 lung
NCI/ADR-RES ovarian = test system: NCI/ADR-RES ovarian
OVCAR-3 ovarian = test system: OVCAR-3 ovarian
OVCAR-4 ovarian = test system: OVCAR-4 ovarian
OVCAR-5 ovarian = test system: OVCAR-5 ovarian
OVCAR-8 ovarian = test system: OVCAR-8 ovarian
PC-3 prostate = test system: PC-3 prostate
RPMI-8226 leukemia = test system: RPMI-8226 leukemia
RXF 393 renal = test system: RXF 393 renal
SF-268 CNS = test system: SF-268 CNS
SF-295 CNS = test system: SF-295 CNS
SF-539 CNS = test system: SF-539 CNS
SK-MEL-2 melanoma = test system: SK-MEL-2 melanoma
SK-MEL-5 melanoma = test system: SK-MEL-5 melanoma
SK-OV-3 ovarian = test system: SK-OV-3 ovarian
SNB-19 CNS = test system: SNB-19 CNS
SNB-75 CNS = test system: SNB-75 CNS
SR leukemia = test system: SR leukemia
T-47D breast = test system: T-47D breast
TK-10 renal = test system: TK-10 renal
U251 CNS = test system: U251 CNS
UACC-257 melanoma = test system: UACC-257 melanoma
UACC-62 melanoma = test system: UACC-62 melanoma
UO-31 renal = test system: UO-31 renal

Measured: TGI

CN1C(=O)C2C(=O)N(Cc3ccccc3)CC(=O)N2c2cccnc21 (centres undefined)
> 100 µM: all assays above
